# Assays:
# [1] = system: Sciatic Ligation neuropathic pain; assay: T23 partial ligation of the sciatic nerve (mechanical allodynia); assay type: in vivo, rats; settings: dose 35.5 (HZ-166), 18 (JY-XHE-053), 1 (XLI-JY-DMH) mg/kg; TPE 2 hr
# Procedure: Neuropathic pain. The pro- or antinociceptive effects of the compounds of the present invention are analyzed in two manners. […] Sterile technique will be used throughout the surgery. The upper thigh will be shaved and wiped off with ethanol and betadine. A small incision will then be made in the skin. The underlying muscle of the upper thigh will be separated and the sciatic nerve exposed. The nerve is separated from the surrounding connective tissue and slightly elevated by a pair of fine, curved forceps. Approximately ⅓ to ½ of the nerve is tied off by passing a needle (7.0) and nylon suture through the nerve. The muscle and skin incision are closed off separately with 5.0 suture and the animals kept warm until they have recovered from the anesthesia. This procedure is routinely done on the right side (ipsilateral) while a sham surgery is performed on the left hind leg (contralateral). The latter involves a similar procedure with the exception that the sciatic nerve on this side is only exposed. The rats will be closely monitored daily for the development of infection or untoward effects of the surgery in which case the animals will be immediately euthanized
# After an appropriate time for recovery (7 days) the animals will be tested for the development of mechanical allodynia (abnormal response to a non-noxious stimulus). The animals are each put in a bottomless plexiglass box placed on a wire mesh (¼″) platform. After 30-60 minutes in which to acclimate, a baseline mechanical sensitivity is determined. This procedure is done by applying a series of calibrated Von Frey fibres perpendicularly to the plantar surface of each hind paw and holding it there for about 6 secs with enough force to slightly bend the fibre. After a positive response (withdrawal of the foot) is noted a weaker fibre is applied. This is repeated until a 50% threshold for withdrawal can be determined
# The allodynic threshold is then redetermined after intraperitoneal administration of an investigational AED. Testing will be conducted at the time-to-peak effect of the AED as determined in the acute seizure model.
# [2] = system: neuropathic pain after CCI of the sciatic nerve; assay: chronic constriction injury (CCI) model, mechanical sensitization (von Frey filaments); assay type: in vivo, mice
# [3] = system: locomotor activity of mice; assay: spontaneous locomotor activity (activity cage); assay type: in vivo
# Procedure: Locomotor activity: Spontaneous locomotor activity was tested using a commercially available microprocessor equipped activity cage (actiframe, Gerb Elektronik). Mice were placed in the activity cage 15 min before testing. Locomotor activity was measured for 1 h after intraperitoneal administration of vehicle, gabapentin or HZ166 during the early light phase of the day-night cycle.
# [4] = system: rhesus monkeys; assay: conflict model of anxiolytic activity which also measures sedation; assay type: in vivo
# Procedure: The data in FIGS. 21A-21F reflect the ability of the compounds or drugs to exert an anxioyic effect in rhesus monkeys (J. Rowlett, J. M. Cook et al., unpublished results) when given intravenously in propylene glycol/water solution. This is the conflict model of anxiolytic activity which also measures sedation. […] In FIG. 21B, SH-053-2′F (JY-XHE-053) is anxiolytic at a dose of greater than 0.13 mg/kg, but exerts only some slight sedation at doses greater than 1.2 mg/kg (responses decrease). In FIG. 21C it is clear the S-enantiomer of SH-053-2′F—S—CH3 is anxiolytic with no sedation up to 10-18 mg/kg, which is the highest dose tested.
# [5] = mice and rats after intraperitoneal (i.p.) application; Rivas et al., 2009; cited from earlier work
# [6] = system: seizures; settings: Rivas et al., 2009, cited from earlier work
structure (smiles),measurement,setting,value
"C#Cc1ccc2c(c1)C(c1ccccn1)=NCc1c(C(=O)OCC)ncn1-2 [HZ-166, 8-Acetylenyl-6-pyridin-2-yl-4H-benzo[f]imidazo[1,5-a][1,4]diazepine-3-carboxylic acid ethyl ester]","Change (% of Control) ± SEM, T23 Sciatic Ligation",[1],210 % of Control
same,"Significance, T23 Sciatic Ligation",[1],yes
same,"analgesia, mechanical sensitivity (von Frey) in CCI model","[2]; 48 mg/kg, 160 mg/kg and 480 mg/kg i.p.",significant analgesia
same,"AUC of mechanical PWT, HZ166 followed by vehicle","[2]; HZ166 16 mg/kg i.p., vehicle 45 min later, n=6",1.90 ± 0.29 g·h
same,ED50,"[2]; Mus musculus, ip, 168 h, i.p., day 7 after CCI surgery, Hill fit, read-out: ED50, increase of ipsilateral PWT",3.83 ± 0.94 mg/kg
same,reversal of mechanical hypersensitivity,"[2]; i.p., CCI model",dose-dependent reversal
same,PWTs of the contralateral paw,"[2]; i.p., day 7 after CCI surgery",not affected
same,time of maximum effect on ipsilateral PWT after injection,"[2]; i.p., day 7 after CCI surgery",about 1 h
same,doses at which saturation of the antihyperalgesic effect was reached,"[2]; i.p., mechanical PWT",≥ 160 mg/kg
same,doses with statistically significant antihyperalgesic effects,"[2]; i.p., mechanical PWT",≥ 16 mg/kg
same,analgesic effects in the chronic constriction injury model of neuropathic pain,"[2]; mouse, in vivo",analgesic effects
same,impairment of spontaneous motor activity,[3]; 16 and 48 mg/kg i.p.,did not significantly impair
same,doses that did not impair spontaneous locomotor activity,[3]; i.p.,≤ 48 mg/kg
same,sedation,[3]; mouse model of neuropathic pain study,not sedating
same,no sedation up to dose,[4]; conflict model,up to 10 mg/kg
same,sedative activity (conflict model),[4]; intravenously,no sedative activity
same,anxiolytic effect (conflict model),[4]; intravenously in propylene glycol/water,anxiolytic
same,pharmacokinetics,[5],suitable
same,toxicity,[6],minimal
same,anticonvulsive activity,[6]; at non-sedative doses,good anticonvulsive activity
